Results: US9662387B2, “Functional, cross-linked nanostructures for tandem optical imaging and therapy” (Mallinckrodt LLC, priority 2010, dated 2017)
Like-named read-outs stand apart in the source and are kept apart here.

Legend:
KB cells = assay: EST-1 cell viability assay using KB cells (cell cytotoxicity); type: cell-based; conditions: Homo sapiens
Procedure: Table 3 provides 1050 data for the EST-1 cell viability assay using KB cells with 2 hour treatment with the particles described above. […] HPLC and MS analyses were in agreement with the determination of PTX concentration.
Table 5 provides results of cell cytotoxicity 1050 data for the EST-1 cell viability assay using KB cells with the particles described above. “ND” means not determined.

[1] = Core loading of phototherapeutic agent into micelles; type: physicochemical; conditions: poly(p-hydroxystyrene) core; shown previously
Procedure: Core loading was achieved by addition of MP-3397 stock solution (in DMF) into aqueous micelle solution followed by removal of organic solvent through dialysis. Alternatively, MP-3397 stock solution incubated with block copolymer (both in DMF) underwent co-assembly upon addition of water followed by dialysis. In an example, poly(p-hydroxystyrene) core achieved maximum of 5 wt % core loading whereas polystyrene core achieved ca. 15 wt %.

[2] = DOX release experiments from dialysis cassette, Higuchi fit and f1/f2 profile comparison; type: physicochemical; conditions: at either pH value (5.0 or 7.4)
Procedure: General procedure for the DOX release experiments: To a presoaked dialysis cassette (Slide-A-Lyzer, 10 kDa MWCO, Pierce Biotechnology, Rockford Ill., USA) was added ca. 7 mL of the DOX-loaded SCK or SC-rod solution. The cassette was stirred in a beaker containing 4 L of 5 mM PBS at pH 5.0 or 7.4 and 37° C. for a period of 52 hrs. Samples (ca. 1 mL) were removed from the cassette at 0, 1, 2, 3, 5, 7, 9, 15, 21, 27, 39 and 52 h and analyzed by UV-vis spectroscopy (488 nm, ε=13050 M^−1 cm^−1) and injected back to the cassette immediately after the analysis. DOX release data points were then fitted to a third order polynomial equation.
DOX-SCR or DOX-SCK (ca. 4 mL) was transferred to a presoaked dialysis cassette (Slide-A-Lyzer, 10 kDa MWCO, Pierce Biotechnology, Rockford Ill., USA). […] Samples (ca. 1.5 mL) were removed from the cassette at 0, 1, 2, 4, 6, 9, 12, 18, 24, 30, 40, 50 and 60 h, analyzed by UV-vis (488 nm, 6=12500 M^−1cm^−1 determined by a calibration curve in PBS), and then returned to the cassette. […]
To further quantitatively understand the differences and similarities in DOX release profiles, model-independent methods were used to calculate f1, the difference factor, and f2, the similarity factor (F. O. Costa, J. J. S. Sousa, A. Pais, S. J. Formosinho, J. Controlled Release 2003, 89, 199; J. W. Moore, H. H. Flanner, Pharm. Tech. 1996, 20, 67.): […]

`CC(=O)O[C@H]1C(=O)[C@@]2(C)[C@H]([C@H](OC(=O)c3ccccc3)[C@]3(O)C[C@H](OC(=O)[C@H](O)[C@@H](NC(=O)c4ccccc4)c4ccccc4)C(C)=C1C3(C)C)[C@]1(OC(C)=O)CO[C@@H]1C[C@@H]2O` [Paclitaxel, paclitaxel] showed an IC50 (KB cells; 2 hr treatment, 60 nm particles, read-out: PTX 2 hr IC50) of 50 nM, an IC50 (KB cells; 72 hr, 60 nm particles, read-out: PTX 72 hr IC50) of 7 nM and an IC50 (KB cells; after one day of loading, 10 nm vs. 20 nm particles, read-out: 2 hr IC50) of 45 nM. It also gave an IC50 (KB cells; after two weeks of loading, 10 nm vs. 20 nm particles, read-out: 72 hr IC50) of 2 nM.

Work on `Oc1c(I)cc(I)c(-c2c(I)cc(I)c(O)c2I)c1I` [MP-4089] yielded a core loading [1] of 15 wt %.

For doxorubicin [free DOX], the “time to complete release from the dialysis cassette” value [2] was ≤ 4 h and the “DOX release from the dialysis cassette” value ([2]; in 3 h) was 95%.
